The text below walks through data of patent publication US5446045A, “Antiviral guanine analogs” (priority 1993, dated 1995).

≈ marks a conversion by molar mass, not a printed value.

One data set deals with viruses.
Assay: not given
The conditions noted are these: literature ref. 3; cited from earlier work.
With `Nc1nc2c(sc(=O)n2[C@@H]2O[C@H](CO)[C@@H](O)[C@H]2O)c(=O)[nH]1` [7-thia-8-oxoguanosine], the “antiviral activity in vitro” value is “virtually inactive”.

System in another data set: not listed separately
Kind of data set: Cytotoxicity (inhibition of cell growth) in actively dividing Vero cells, CellTiter 96 assay. In kind it is cell-based. The conditions noted are these: african green monkey, 4 day incubation, read-out: Cytotoxicity (TC50). As for the experimental part: (§1) Vero and MRC-5 cells were obtained from ATCC. Human foreskin fibroblast (HFF) and Vero cells were routinely grown in minimal essential medium (MEM) with Earle salts [MEM(E)]supplemented with 10% fetal bovine serum (FBS). MRC-5 cells were grown in Basal Medium Eagle (BME) with 10% FBS and 0.035% NaHCO3. Cells were passaged according to conventional procedures.^33 Human cytomegalovirus (HCMV) strains AD169 and Towne were obtained from the ATCC. Herpes simplex virus type i and type 2 (HSV1 and HSV2) are commercially available.
(§2) Stationary uninfected HFF and MRC-5 cells were evaluated for visual cytotoxicity on the scoring basis of 0 (no visual cytotoxicity at 20 fold magnification) to 4 (cell sheet nearly destroyed). Cytotoxicity as measured by inhibition of cell growth was performed in Vero cells using a CellTiter 96™ Aqueous Non-Radioactivity Cell Proliferation Assay (Promega). Cytotoxicity assays were performed using a 4 day incubation of test compound with Vero cells plated at 500 cells/well. Each assay was performed in quadruplicate. The resultant data are averaged, graphed and then used to calculate the TC50 (median toxic concentration) for the compound tested.
III. […] For all values listed as >x, x is the highest concentration tested for the respective compound.
As for `CCCCCCn1c(=O)sc2c(=O)[nH]c(N)nc21` [Compound R1132-30], the CC50 at 96 h was above 1 µg/mL.

With `CCCCCn1c(=O)sc2c(=O)[nH]c(N)nc21` [Compound R1132-36], the CC50 at 96 h was above 5 µg/mL.

The subject of the next data set is Human cytomegalovirus (HCMV) strain AD169. Put plainly: HCMV plaque reduction (cytopathic effect) assay, strain AD169 in MRC-5 cells. In kind it is cell-based. The conditions noted are these: Human betaherpesvirus 5, AD169/MRC5, read-out: IC50 (median inhibitory concentration). As for the experimental part:
as §1
Two different plaque reduction assays were employed to determine the antiviral efficacy of the test compounds in culture. The first assay used MRC-5 cells and the AD169 strain of HCMV. The second assay used HFF cells and the Towne strain of HCMV. In experiments using MRC-5 cells the growth medium was removed from monolayer cultures in 24-well tissue culture plates. One mL of virus (AD169), diluted in test medium (Dulbecco's modified Eagle medium (DMEM), 2% FBS, 0.1% NaHCO3 and 50 ug gentamicin/mL) was used. The 24-well plates were centrifuged at 2200 rpm for 30 minutes at room temperature to allow the virus to adsorb. Medium was then aspirated from each well of the plates. The individual dilutions of each compound (prepared in test medium) were placed in each test well (0.8 mL/well, 4 wells/dilution). All plates were incubated at 37° C. in a moist atmosphere of 5% CO2. When virus plaques had formed in control cells (HCMV infected, untreated) the medium was aspirated from all wells, and the cells were stained by adding 0.3 mL of 0.2% crystal violet in 10% buffered formalin to each well. After 15 minutes, the stain was removed, cells were rinsed in tap water until the water was clear, and the plates were inverted and dried at room temperature. Plaques were counted by use of a dissecting microscope.
(§3) Ganciclovir was used as an anti-HCMV standard in all HCMV assays.
(§4) I. A series of guanine analogs containing an alkyl side chain in place of sugar moiety were evaluated for their ability to inhibit HCMV production in acute infection assays in culture and for cytotoxicity in HFF and MRC-5 cells.
(§5) III. Table 1 lists the median inhibitory concentration (IC50) for all compounds tested against HCMV strains AD169 or Towne. In addition this table lists the median toxic concentrations of these compounds (TC50) as determined by visual observation of uninfected cells treated with various concentrations of drug.
Plaque reduction assays were employed to determine the antiviral efficacy of the test compounds in culture. MRC-5 cells and the AD169 strain of FICMV were used. Growth medium was removed from monolayer cultures in 24-well tissue culture plates. One ml of virus, diluted in test medium (Dulbecco's modified Eagle medium (DMEM), 2% FBS, 0.1% NaHCO3 and 50 ug gentamicin/ml). After infection and subsequent removal of the media, individual dilutions of each compound (prepared in test medium) were placed in each test well (0.8 ml/well, 4 wells/dilution) and plates incubated at 37° C. in a moist atmosphere of 5% CO2. When virus plaques have formed in control cells (HCMV infected, untreated) the medium was aspirated from all wells, and the cells stained by adding 0.3 ml of 0.2% crystal violate in 10% buffered formalin to each well. Plaques were counted by use of a dissecting microscope. Ganciclovir was used as an anti-HCMV standard in all HCMV assays.
A general note: Damage to the host cells serves as the signal in cytopathic effect assays.
`CCCCCCn1c(=O)sc2c(=O)[nH]c(N)nc21` [Compound R1132-30]: the IC50 was determined as 0.45 µg/mL (≈ 1.68 µM).

For `CCCCCn1c(=O)sc2c(=O)[nH]c(N)nc21` [Compound R1132-36], the IC50 is 0.2 µg/mL (≈ 0.786 µM).

The next data set deals with Human cytomegalovirus (HCMV) strain Towne. Put plainly: HCMV plaque reduction (cytopathic effect) assay, strain Towne in HFF cells. It is filed as cell-based. The conditions noted are these: Human betaherpesvirus 5, HFF, read-out: IC50 (median inhibitory concentration). As for the experimental part:
as §1
A similar set of experiments designed to monitor HCMV plaque reduction were performed with monolayer cultures of HFF and the Towne strain of HCMV using procedures similar to those reported by Turk et al.^34 Diploid HFF cells were plated 24 hr before use at approximately 1×10^5 cells/plate. These monolayer cultures were infected with 100 plaque forming units (PFU) of virus. The compounds to be assayed were dissolved in culture medium. Viral adsorption was allowed to proceed for 1 hr at which time virus containing medium was removed and replaced with medium containing the various dilutions of the test compounds. Plaques were counted using crystal violet as described above.
as §3, §4, §5
As to `CCCCCn1c(=O)sc2c(=O)[nH]c(N)nc21` [Compound R1132-36], the IC50 stood at 17 µg/mL (≈ 66.8 µM).

System in another data set: not listed separately
Put plainly: Visual cytotoxicity in stationary uninfected HFF cells. It is filed as cell-based. The conditions noted are these: human; Towne/HFF system; visual observation of stationary uninfected HFF cells; read-out: TC50 (median toxic concentration). As for the experimental part: as §1, §2, §4, §5
Regarding `CCCCCn1c(=O)sc2c(=O)[nH]c(N)nc21` [Compound R1132-36], the CC50 is 100 µg/mL (≈ 393 µM).

System in the next data set: not listed separately
Put plainly: Visual cytotoxicity in stationary uninfected MRC-5 cells. In kind it is cell-based. The conditions noted are these: human, AD169/MRC5 system, visual observation of stationary uninfected MRC5 cells, read-out: TC50 (median toxic concentration). As for the experimental part:
as §2, §4, §5
Take `CCCCCCn1c(=O)sc2c(=O)[nH]c(N)nc21` [Compound R1132-30]: the CC50 was determined as 1.2 µg/mL (≈ 4.47 µM).

On to `CCCCCn1c(=O)sc2c(=O)[nH]c(N)nc21` [Compound R1132-36], for which the CC50 amounted to 4 µg/mL (≈ 15.7 µM).

System in a further data set: not given
Assay: not given
The conditions noted are these: literature ref. 3-7; cited from earlier work.
As for `Nc1nc2c(sc(=O)n2[C@@H]2O[C@H](CO)[C@@H](O)[C@H]2O)c(=O)[nH]1` [7-thia-8-oxoguanosine], the immunomodulatory activity result is “demonstrated immunomodulatory activity”.

Another data set has as its system Herpes simplex virus type 2 (HSV2). Kind of data set: Inhibition of HSV2 in Vero cells (CPE assay). In kind it is cell-based. The conditions noted are these: Human alphaherpesvirus 2, CPE scored 40 to 48 h post-infection. As for the experimental part:
as §1
(§6) Vero cells were plated at 4×10^4 cells/well in a 96-well microtitre dish in 0.1 mL of MEM(E) with 10% FBS 24 h before infection with virus. The cells were incubated at 37° C. in a 5% CO2 atmosphere. The medium was then removed and 50 μL of media containing 30 to 50 PFU of virus was allowed to adsorb to the cells for 10 minutes at 37° C. The virus containing medium was then removed and the cells were rinsed 3 times with fresh media. A final 100 μL aliquot of fresh medium, containing the various dilutions of test compounds, was then added to each well and the plates were then incubated at 37° C. Plaques were observed 24 hr post-infection and the degree of cytopathic effect scored 40 to 48 h post-infection. Acyclovir was used as a standard in all ttSV assays.
(§7) I. The same compounds used in Example 31 were also assayed for their ability to inhibit herpes simplex viruses type 1 and type 2 in acute infection assays in culture.
(§8) III. The toxic effect of these compounds on actively dividing Vero cells is reported. For all values listed as >x, x is the highest concentration tested for the respective compound.
(§9) Vero cells were plated in a 96-well microtitre dish in 0.1 ml of MEM(E) with 10% FBS 24 hours before infection with virus. The medium will then be removed and 50 ul of media containing 30 to 50 PFU of virus were allowed to adsorb to the cells for 10 minutes at 37° C. The virus-containing medium will then be removed and the cells rinsed 3 times with fresh media. A final 100 ul aliquot of fresh medium, containing the various dilutions of test compounds, were added to each well and the plates incubated at 37° C. Plaques were observed 24 hours post-infection and the degree of cytopathic effect scored 40 to 48 hours-post infection. Acyclovir was used as a standard in all HSV assays.
`CCCCCCn1c(=O)sc2c(=O)[nH]c(N)nc21` [Compound R1132-30] yielded an IC50 above 1.2 µg/mL.

Molecule `CCCCCn1c(=O)sc2c(=O)[nH]c(N)nc21` [Compound R1132-36] came in with an IC50 above 5.1 µg/mL.

For a further data set, the system named is Herpes simplex virus type 1 (HSV1). Put plainly: Inhibition of HSV1 in Vero cells (CPE assay). In kind it is cell-based. The conditions noted are these: Human alphaherpesvirus 1, CPE scored 40 to 48 h post-infection. As for the experimental part:
as §1, §6, §7, §8, §9
`CCCCCCn1c(=O)sc2c(=O)[nH]c(N)nc21` [Compound R1132-30] came in with an IC50 above 1.2 µg/mL.

Take `CCCCCn1c(=O)sc2c(=O)[nH]c(N)nc21` [Compound R1132-36]: the IC50 was above 5.1 µg/mL.

The test system of the next data set is viruses.
Assay: not given
The conditions noted are these: literature ref. 3; cited from earlier work. The source holds these as a separate data set.
As for `Nc1nc2c(sc(=O)n2[C@@H]2O[C@H](CO)[C@@H](O)[C@H]2O)c(=O)[nH]1` [7-thia-8-oxoguanosine], the “antiviral activity in the host animal” value is “broad spectrum of antiviral activity”.
